Assay results as given in ChEMBL document CHEMBL5241130, “Integrating a phenotypic screening with a structural simplification strategy to identify 4-phenoxy-quinoline derivatives to potently disrupt the mitotic localization of Aurora kinase B” (Bioorg Med Chem, 2023).
In brackets after ≈: the same amount, converted by molar mass. Activity calls are given as the source filed them. No cut-off for these calls is given here.

How the values were obtained:
NCI-N87 = test: Cytotoxicity against human NCI-N87 cells assessed as cell growth inhibition incubated for 3 days by MTT assay; type: functional, cell-based; conditions: time 3.0 day
[1] = target: Aurora kinase B (Homo sapiens) (UniProt Q96GD4); test: Disruption of mitotic localization of AURKB in human RPE-MYC cells expressing BCL2 assessed as disruption of MKLP1 localization at spindle mid-zone at 40 nM measured after 6 hrs by immunofluorescence staining analysis; type: cell-based
Chain of Aurora kinase B (Homo sapiens) (Q96GD4 whole entry, the tested form may be a part): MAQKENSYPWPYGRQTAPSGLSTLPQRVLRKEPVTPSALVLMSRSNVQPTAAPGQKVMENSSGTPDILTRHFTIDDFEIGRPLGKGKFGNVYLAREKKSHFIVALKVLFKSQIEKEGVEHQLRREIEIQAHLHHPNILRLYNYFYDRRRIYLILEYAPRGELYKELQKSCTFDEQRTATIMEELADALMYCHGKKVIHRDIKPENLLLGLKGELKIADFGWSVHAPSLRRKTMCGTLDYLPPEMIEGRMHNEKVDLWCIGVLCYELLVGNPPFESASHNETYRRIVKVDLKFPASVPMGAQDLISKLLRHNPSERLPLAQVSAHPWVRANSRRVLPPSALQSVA

[2] = target: Serine/threonine-protein kinase PLK1 (Homo sapiens) (UniProt P53350); test: Inhibition of PLK1 (unknown origin) by bio-chip based analysis
Chain of Serine/threonine-protein kinase PLK1 (Homo sapiens) (P53350 whole entry): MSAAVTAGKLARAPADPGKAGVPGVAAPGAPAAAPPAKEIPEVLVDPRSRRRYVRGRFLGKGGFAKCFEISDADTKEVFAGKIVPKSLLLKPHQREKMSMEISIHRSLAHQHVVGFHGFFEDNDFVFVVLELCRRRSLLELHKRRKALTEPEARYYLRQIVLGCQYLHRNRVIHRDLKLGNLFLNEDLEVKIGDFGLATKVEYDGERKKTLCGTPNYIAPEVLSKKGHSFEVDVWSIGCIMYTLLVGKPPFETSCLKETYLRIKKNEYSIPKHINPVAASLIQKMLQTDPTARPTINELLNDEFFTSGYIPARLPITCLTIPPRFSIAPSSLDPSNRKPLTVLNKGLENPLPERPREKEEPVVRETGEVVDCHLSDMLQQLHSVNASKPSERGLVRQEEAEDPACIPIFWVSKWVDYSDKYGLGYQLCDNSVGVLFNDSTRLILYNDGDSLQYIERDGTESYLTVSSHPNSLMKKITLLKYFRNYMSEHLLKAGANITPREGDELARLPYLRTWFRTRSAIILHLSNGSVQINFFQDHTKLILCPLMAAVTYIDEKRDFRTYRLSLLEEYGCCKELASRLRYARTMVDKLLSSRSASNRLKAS

[3] = target: Aurora kinase B (Homo sapiens) (UniProt Q96GD4); test: Disruption of mitotic localization of AURKB in human RPE-MYC H2B-GFP cells assessed as induction of polyploidy by fluorescence high content cell imaging analysis; type: cell-based
[4] = test system: Tyrosine-protein kinase ABL1 (Homo sapiens), P00519 [H396P]; test: Inhibition of human recombinant ABL1 H396P mutant at 2 uM by KINOMEscan assay
[5] = Toxicity in BALB/c nude mouse xenografted with human HCT-116 cells assessed as body weight at 50 mg/kg, po bid for 7 days; type: organism-based; conditions: in vivo, 168 h, time 7 day
[6] = Apparent volume of distribution in Wistar rat at 2 mg/kg, iv measured after 24 hrs by LC-MS/MS analysis; type: ADME, organism-based; conditions: in vivo, read-out: Vz
[7] = Plasma concentration in BALB/c nude mouse xenografted with human HCT-116 cells administered as single dose and measured after 6 hrs by LC-MS/MS analysis; type: ADME
[8] = target: Aurora kinase B (Homo sapiens) (UniProt Q96GD4); test: Disruption of mitotic localization of AURKB in human RPE-MYC H2B-GFP cells assessed as induction of mitotic arrest by fluorescence high content cell imaging analysis; type: cell-based
NCI-H23 = test: Cytotoxicity against human NCI-H23 cells assessed as cell growth inhibition incubated for 3 days by MTT assay; type: functional, cell-based; conditions: time 3.0 day
[9] = Clearance in Wistar rat at 20 mg/kg, po measured for 24 hrs by LC-MS/MS analysis; type: ADME, organism-based; conditions: in vivo
[10] = Drug degradation in human plasma at 1 to 10 uM incubated for 2 hrs by LC-MS analysis; type: ADME, cell-free; conditions: dose 1-10 µM, read-out: Drug degradation
[11] = Clearance in Wistar rat at 2 mg/kg, iv measured after 24 hrs by LC-MS/MS analysis; type: ADME, organism-based; conditions: in vivo
[12] = Drug degradation in mouse plasma at 1 to 10 uM incubated for 2 hrs by LC-MS analysis; type: ADME, cell-free; conditions: dose 1-10 µM, read-out: Drug degradation
[13] = Kinetic solubility of the compound in PBS buffer at pH 7.4 measured after 72 hrs by LC-MS analysis; type: physicochemical; conditions: read-out: Kinetic_solubility
[14] = target: Aurora kinase B (Homo sapiens) (UniProt Q96GD4); test: Disruption of mitotic localization of AURKB in human RPE-MYC cells expressing BCL2 assessed as disruption of PLK1 localization at spindle mid-zone at 40 nM measured after 6 hrs by immunofluorescence staining analysis; type: cell-based
[15] = Oral bioavailability in Wistar rat at 20 mg/kg measured for 24 hrs by LC-MS/MS analysis; type: ADME, organism-based; conditions: in vivo
[16] = Cmax in Wistar rat at 20 mg/kg, po measured for 24 hrs by LC-MS/MS analysis; type: ADME, organism-based; design: time 24 hrs, dose 20 mg/kg, route po; conditions: in vivo
[17] = Half life in Wistar rat at 20 mg/kg, po measured for 24 hrs by LC-MS/MS analysis; type: ADME, organism-based; conditions: in vivo
[18] = target: Aurora kinase B (Homo sapiens) (UniProt Q96GD4); test: Inhibition of AURKB in human RPE-MYC H2B-GFP cells assessed as inhibition of histone H3 phosphorylation at Ser10 residue at 8XMEC measured after 6 hrs by immunofluorescence staining analysis; type: cell-based
[19] = target: Discoidin domain-containing receptor 2 (Homo sapiens, UniProt Q16832); test: Inhibition of DDR2 (unknown origin) assessed as inhibition of DDR2 interaction with DNA-bound ligand by qPCR analysis
Chain of Discoidin domain-containing receptor 2 (Q16832 whole entry, the tested form may be a part): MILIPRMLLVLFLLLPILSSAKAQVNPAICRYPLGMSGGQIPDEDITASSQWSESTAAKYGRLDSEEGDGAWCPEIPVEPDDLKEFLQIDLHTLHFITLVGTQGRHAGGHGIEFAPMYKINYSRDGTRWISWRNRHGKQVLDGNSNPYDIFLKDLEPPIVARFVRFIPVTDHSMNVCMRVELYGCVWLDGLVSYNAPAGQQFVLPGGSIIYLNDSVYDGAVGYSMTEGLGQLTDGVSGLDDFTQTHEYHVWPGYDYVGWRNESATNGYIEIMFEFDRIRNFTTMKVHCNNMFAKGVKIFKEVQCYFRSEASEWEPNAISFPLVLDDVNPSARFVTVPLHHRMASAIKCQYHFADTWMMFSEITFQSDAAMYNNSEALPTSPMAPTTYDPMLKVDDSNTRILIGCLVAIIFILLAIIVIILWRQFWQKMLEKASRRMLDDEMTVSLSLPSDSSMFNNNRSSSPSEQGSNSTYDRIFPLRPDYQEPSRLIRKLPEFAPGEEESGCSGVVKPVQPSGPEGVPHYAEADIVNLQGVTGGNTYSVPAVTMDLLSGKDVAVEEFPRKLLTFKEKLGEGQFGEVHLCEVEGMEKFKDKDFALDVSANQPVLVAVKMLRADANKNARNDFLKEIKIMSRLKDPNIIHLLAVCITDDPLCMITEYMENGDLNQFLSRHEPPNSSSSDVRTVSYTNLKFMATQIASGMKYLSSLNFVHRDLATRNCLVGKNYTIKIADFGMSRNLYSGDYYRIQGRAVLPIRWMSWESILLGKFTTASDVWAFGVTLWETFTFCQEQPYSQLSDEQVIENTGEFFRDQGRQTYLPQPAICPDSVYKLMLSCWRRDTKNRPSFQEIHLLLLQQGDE

[20] = target: Serine/threonine-protein kinase PLK4 (Homo sapiens) (UniProt O00444); test: Inhibition of PLK4 (unknown origin) by bio-chip based analysis
Chain of Serine/threonine-protein kinase PLK4 (Homo sapiens) (O00444 whole entry): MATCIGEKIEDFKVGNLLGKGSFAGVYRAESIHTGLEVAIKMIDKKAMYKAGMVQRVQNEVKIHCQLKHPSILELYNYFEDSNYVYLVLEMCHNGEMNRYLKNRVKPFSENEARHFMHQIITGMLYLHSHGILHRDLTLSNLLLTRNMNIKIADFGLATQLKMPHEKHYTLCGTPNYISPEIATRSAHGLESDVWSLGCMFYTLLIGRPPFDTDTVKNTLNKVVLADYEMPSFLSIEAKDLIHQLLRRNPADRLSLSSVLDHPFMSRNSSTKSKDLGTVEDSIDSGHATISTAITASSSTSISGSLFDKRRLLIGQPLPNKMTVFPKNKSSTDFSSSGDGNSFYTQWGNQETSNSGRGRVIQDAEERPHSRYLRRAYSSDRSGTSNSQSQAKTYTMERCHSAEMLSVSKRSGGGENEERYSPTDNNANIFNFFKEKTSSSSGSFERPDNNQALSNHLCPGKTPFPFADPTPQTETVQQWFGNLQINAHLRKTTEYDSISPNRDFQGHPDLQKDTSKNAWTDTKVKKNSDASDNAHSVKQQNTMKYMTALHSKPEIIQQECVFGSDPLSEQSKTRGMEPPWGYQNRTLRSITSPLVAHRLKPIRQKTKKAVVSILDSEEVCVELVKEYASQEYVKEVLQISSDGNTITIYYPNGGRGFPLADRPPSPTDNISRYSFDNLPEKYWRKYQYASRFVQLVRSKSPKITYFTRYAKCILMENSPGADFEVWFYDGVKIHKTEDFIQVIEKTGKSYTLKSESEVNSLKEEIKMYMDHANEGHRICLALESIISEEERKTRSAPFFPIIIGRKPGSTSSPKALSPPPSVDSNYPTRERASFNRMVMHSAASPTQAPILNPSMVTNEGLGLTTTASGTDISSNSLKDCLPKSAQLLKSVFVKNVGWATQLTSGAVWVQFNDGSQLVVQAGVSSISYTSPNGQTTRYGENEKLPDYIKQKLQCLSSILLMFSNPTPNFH

[21] = target: Serine/threonine-protein kinase PLK3 (Homo sapiens) (UniProt Q9H4B4); test: Inhibition of PLK3 (unknown origin) by bio-chip based analysis
Chain of Serine/threonine-protein kinase PLK3 (Homo sapiens) (Q9H4B4 whole entry, looked up): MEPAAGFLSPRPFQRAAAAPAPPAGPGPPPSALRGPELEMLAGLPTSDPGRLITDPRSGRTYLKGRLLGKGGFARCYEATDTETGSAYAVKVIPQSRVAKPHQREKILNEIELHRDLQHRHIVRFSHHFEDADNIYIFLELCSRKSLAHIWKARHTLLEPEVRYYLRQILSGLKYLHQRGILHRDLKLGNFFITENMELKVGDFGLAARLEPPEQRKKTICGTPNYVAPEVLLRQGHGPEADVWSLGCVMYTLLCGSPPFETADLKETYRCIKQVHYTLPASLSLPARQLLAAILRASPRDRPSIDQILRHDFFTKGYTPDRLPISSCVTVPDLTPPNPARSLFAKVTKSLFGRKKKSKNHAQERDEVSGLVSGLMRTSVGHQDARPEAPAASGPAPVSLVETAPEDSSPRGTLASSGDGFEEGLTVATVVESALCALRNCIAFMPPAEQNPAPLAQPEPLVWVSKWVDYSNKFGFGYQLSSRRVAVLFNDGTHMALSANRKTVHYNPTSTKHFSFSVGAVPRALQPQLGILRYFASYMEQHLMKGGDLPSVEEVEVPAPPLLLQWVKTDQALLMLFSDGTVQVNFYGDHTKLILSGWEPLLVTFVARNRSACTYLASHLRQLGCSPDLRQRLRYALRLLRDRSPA

[22] = Drug degradation in PBS buffer at pH 7.4 measured after 72 hrs by LC-MS analysis; type: physicochemical; conditions: read-out: Drug degradation
[23] = Tmax in Wistar rat at 20 mg/kg, po measured for 24 hrs by LC-MS/MS analysis; type: ADME, organism-based; conditions: in vivo
[24] = Volume of distribution at steady state in Wistar rat at 2 mg/kg, iv measured after 24 hrs by LC-MS/MS analysis; type: ADME, organism-based; conditions: in vivo, read-out: Vdss
[25] = target: Rho-associated protein kinase 1 (Homo sapiens) (UniProt Q13464); test: Inhibition of ROCK1 (unknown origin) by bio-chip based analysis
Chain of Rho-associated protein kinase 1 (Homo sapiens) (Q13464 2-1354 limits assumed): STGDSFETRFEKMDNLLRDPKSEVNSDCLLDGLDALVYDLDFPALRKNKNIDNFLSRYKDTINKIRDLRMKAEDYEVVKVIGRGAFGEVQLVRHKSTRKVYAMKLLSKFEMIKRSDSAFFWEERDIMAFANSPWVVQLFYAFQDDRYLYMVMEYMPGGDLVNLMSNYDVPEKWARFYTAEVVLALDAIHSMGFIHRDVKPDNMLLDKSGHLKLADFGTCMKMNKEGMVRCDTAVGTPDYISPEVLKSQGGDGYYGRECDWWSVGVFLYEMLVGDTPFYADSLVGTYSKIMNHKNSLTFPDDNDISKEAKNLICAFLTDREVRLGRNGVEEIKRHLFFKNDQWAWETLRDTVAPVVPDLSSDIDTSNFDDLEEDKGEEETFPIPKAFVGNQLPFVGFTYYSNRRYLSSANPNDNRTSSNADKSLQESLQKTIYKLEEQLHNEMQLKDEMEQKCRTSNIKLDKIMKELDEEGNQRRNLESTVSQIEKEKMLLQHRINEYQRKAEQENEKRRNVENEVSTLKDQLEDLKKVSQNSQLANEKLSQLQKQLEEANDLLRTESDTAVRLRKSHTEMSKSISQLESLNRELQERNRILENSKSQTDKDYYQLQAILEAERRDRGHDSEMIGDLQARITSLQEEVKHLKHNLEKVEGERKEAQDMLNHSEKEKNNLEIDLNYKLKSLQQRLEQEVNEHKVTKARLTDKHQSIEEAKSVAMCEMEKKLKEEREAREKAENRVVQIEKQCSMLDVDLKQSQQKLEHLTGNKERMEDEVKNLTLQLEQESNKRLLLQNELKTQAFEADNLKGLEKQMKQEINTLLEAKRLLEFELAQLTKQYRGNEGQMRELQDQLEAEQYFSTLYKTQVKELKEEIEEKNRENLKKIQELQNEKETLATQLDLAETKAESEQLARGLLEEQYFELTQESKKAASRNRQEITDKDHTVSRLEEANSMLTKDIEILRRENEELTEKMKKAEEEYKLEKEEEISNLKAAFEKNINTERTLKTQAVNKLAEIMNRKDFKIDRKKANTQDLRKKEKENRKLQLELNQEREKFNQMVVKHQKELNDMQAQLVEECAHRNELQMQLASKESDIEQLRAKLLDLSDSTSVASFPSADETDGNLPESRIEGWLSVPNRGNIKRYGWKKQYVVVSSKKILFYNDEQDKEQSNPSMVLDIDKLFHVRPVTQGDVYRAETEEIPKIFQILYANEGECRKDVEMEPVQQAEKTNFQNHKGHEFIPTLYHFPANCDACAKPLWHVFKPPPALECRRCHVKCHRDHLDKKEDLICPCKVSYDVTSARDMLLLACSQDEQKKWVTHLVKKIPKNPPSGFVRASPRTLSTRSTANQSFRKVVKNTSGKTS

[26] = target: T1, Aurora kinase A (Homo sapiens) (UniProt O14965); test: Inhibition of AURKA in human RPE-MYC H2B-GFP cells assessed as inhibition of autophosphorylation of AURKA at Thr288 residue at 8XMEC measured after 6 hrs by immunofluorescence staining analysis; type: cell-based
T1 sequence (whole entry): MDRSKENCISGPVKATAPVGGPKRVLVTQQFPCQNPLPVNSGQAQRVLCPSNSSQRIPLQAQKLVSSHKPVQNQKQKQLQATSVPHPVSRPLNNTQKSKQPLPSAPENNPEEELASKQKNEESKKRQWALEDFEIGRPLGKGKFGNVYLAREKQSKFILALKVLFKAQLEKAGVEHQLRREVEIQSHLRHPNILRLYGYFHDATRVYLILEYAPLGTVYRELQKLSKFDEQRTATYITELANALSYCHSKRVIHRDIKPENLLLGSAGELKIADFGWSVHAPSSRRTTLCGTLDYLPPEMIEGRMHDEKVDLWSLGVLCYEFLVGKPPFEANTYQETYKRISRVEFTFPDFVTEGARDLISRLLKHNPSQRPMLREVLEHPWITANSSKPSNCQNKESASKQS

[27] = Lipophilicity, log D of the compound in Octanol and PBS buffer at pH 7.4 incubated for 24 hrs under shaking condition followed by incubation for 1 hr without shaking by LC-MS analysis; type: physicochemical
[28] = test system: Tyrosine-protein kinase ABL1 (Homo sapiens), P00519 [F317L]; test: Inhibition of human recombinant ABL1 F317L mutant at 2 uM by KINOMEscan assay
[29] = Ratio of drug uptake in tumor of BALB/c nude mouse xenografted with human HCT-116 cells at 50 mg/kg, po bid for 7 days and measured at 6 hrs post-last drug administration to MEC for disruption of mitotic localization of AURKB in human RPE-MYC H2B-GFP cells assessed as induction of mitotic arrest measured after 24 hrs
[30] = target: Aurora kinase B (Homo sapiens) (UniProt Q96GD4); test: Disruption of mitotic localization of AURKB in human RPE-MYC H2B-GFP cells assessed as induction of polyploidy by fluorescence high content cell imaging analysis relative to control; type: cell-based
[31] = Dose normalized AUC (0 to infinity) in Wistar rat at 2 mg/kg, iv by LC-MS/MS analysis; type: ADME, organism-based; conditions: in vivo
[32] = target: Aurora kinase B (Homo sapiens) (UniProt Q96GD4); test: Inhibition of AURKB in human RPE-MYC cells expressing BCL2 assessed as inhibition of histone H3 phosphorylation at Ser10 residue at 40 nM measured after 6 hrs by immunofluorescence staining analysis; type: cell-based

COc1cc(NC(C)=O)cc(Oc2ccnc3ccc(OC)cc23)c1
Activity (NCI-N87): Active | Activity [1]: Active | inhibition [2]: inactive | MEC [3]: 0.01 µM | inhibition [4]: Active | Activity [5]: Non-Toxic | Vd [6]: 2.78 L/kg | concentration at 6 h [7]: 213 ng/mL | Activity [8]: inactive | Activity (NCI-H23): Active | CL/F [9]: 54.7 mL/min/kg | metabolised at 2 h, up to 10 µM [10]: 0% | clearance [11]: 29.3 mL/min/kg | metabolised at 2 h, up to 10 µM [12]: 0% | solubility kinetic at 72 h [13]: 16 µM (≈ 5.41 µg/mL) | Activity [14]: Active | bioavailability [15]: 27.6% | Cmax [16]: 3140 ng/mL | half-life [17]: 3.26 h | inhibition [18]: < 40% | IC50 [19]: 225 nM | inhibition [20]: inactive | inhibition [21]: inactive | degraded at 72 h [22]: 0% | Tmax [23]: 0.5 h | Vd [24]: 3.7 L/kg | inhibition [25]: inactive | inhibition [26]: < 40% | logD at 25 h [27]: 3.81 | inhibition [28]: Active | Ratio [29]: 70 | Activity [30]: 100% | AUC/dose [31]: 517.74 ng·h/mL/mg/kg | inhibition [32]: inactive
